17 compounds from patent US20250194649A1, “FATTY ACID AMIDES AND THEIR USE AS FLAVOR MODIFIERS” (Firmenich SA, priority 2022, published 2025) can be followed below.

Holding throughout (assay type): in vivo
The nature of assay [1]: Sensory panel (8 experts): sample added to reference water solution containing 0.02% SG95 (stevia extract). To be noted: dosage 0.2 ppm; scale −5 to 5, 0 = reference 0.02% SG95 in water. The text has this: (§1) A panel consisting of 8 experts evaluating the samples adding in reference at 0.2 or 5 ppm for their sensory properties (sweet, licorice, sweet lingering) on a scale of −5 to 5 (−5 denoted strong masking effect and 5 denoted strong enhancing effect, 0 being the intensity of a reference water solution containing 4% sucrose, or 0.02% SG95. The results are shown in Table 2.

A short description of assay [2]: Sensory panel (8 experts): sample added to reference water solution containing 4% sucrose. The settings on record: dosage 0.2 ppm; scale −5 (strong masking) to 5 (strong enhancing), 0 = reference 4% sucrose in water.
Source text: as §1

The nature of assay [3]: Sensory panel (8 experts): sweet intensity of sub-threshold sweetener solutions with and without R1 at 50 ppm. To be noted: for Sweet intensity of the compound solution: without R1. From the text: A panel consisting of 8 experts evaluating R1 adding in various sweeteners at 50 ppm for their sweet properties (0 denoted no sweet taste, 10 denoted too strong sweet taste). The sweetener dosage were designed under their sweetness threshold in water.

Where [4] appears, read: compound 2.5 ppm in water, scale 0 to 10.
The mark [5] stands for this setting: compound 2.5 ppm plus R1 (Sichuan pepper oil) 50 ppm, scale 0 to 10.
The mark [6] stands for this setting: compound 10 ppm in water, scale 0 (no sweet taste) to 10 (too strong sweet taste).
[7] abbreviates: compound 10 ppm plus R1 (Sichuan pepper oil) 50 ppm, scale 0 to 10.

On to hydroxy-γ-sanshool [Compound S2], for which, in assay [1], the “ΔLicorice intensity to stevia extract solution” value (“ΔLicorice intensity” for short) was −0.5, the “ΔLingering intensity to stevia extract solution” value (from here on “ΔLingering intensity”) is −0.8 and the “ΔSweet intensity tostevia extract solution” value is “+0.3”. For the same compound, the “ΔSweet intensity to sucrose solution” value in assay [2] is reported as “+0.7”.

α-mogroside IV: in assay [3] (setting [4]), the “Sweet intensity of the compound solution” value stood at 0.13. Also, the “Sweet intensity of the compound and R1 blend solution” value in assay [3] (setting [5]) is recorded as 1.8.

`COc1cc([C@@H]2CC(=O)c3c(O)cc(O)cc3O2)ccc1O` [Homoeriodictyol, homoeriodictyol]: in assay [3] (setting [6]), the “Sweet intensity of the compound solution” value is given as 0. The “Sweet intensity of the compound and R1 blend solution” value in assay [3] (setting [7]) is reported as 1.7.

As to hesperidin dihydrochalcone, the “Sweet intensity of the compound solution” value in assay [3] (setting [6]) is 0.09. Moreover, the “Sweet intensity of the compound and R1 blend solution” value in assay [3] (setting [7]) worked out at 1.3.

In the case of `C/C=C/C=C/C=C\CC/C=C/C(=O)NCC(C)(C)O` [Compound S1, Hydroxy-α-sanshool], in assay [1], the “ΔLicorice intensity” value is on record as “+0.3”, the “ΔLingering intensity” value is −0.8 and the “ΔSweet intensity tostevia extract solution” value is given as “+0.1”. The “ΔSweet intensity to sucrose solution” value in assay [2] is on record as “+0.3”.

Turning to `O=C(CCc1ccc(O)cc1)c1c(O)cc(O[C@@H]2O[C@H](CO)[C@@H](O)[C@H](O)[C@H]2O)cc1O` [Trilobatin, trilobatin], the “Sweet intensity of the compound solution” value in assay [3] (setting [6]) turned out to be 0. Further, the “Sweet intensity of the compound and R1 blend solution” value in assay [3] (setting [7]) is 1.5.

Turning to `C=C1C[C@@]23CC[C@H]4[C@@](C)(CCC[C@@]4(C)C(=O)O[C@@H]4O[C@H](CO)[C@@H](O)[C@H](O)[C@H]4O)[C@@H]2CC[C@]1(O[C@@H]1O[C@H](CO)[C@@H](O)[C@H](O)[C@H]1O)C3` [Rubusoside, rubusoside], in assay [3] (compound 5 ppm in water, scale 0 to 10), the “Sweet intensity of the compound solution” value is 0. Moreover, the “Sweet intensity of the compound and R1 blend solution” value in assay [3] (compound 5 ppm plus R1 (Sichuan pepper oil) 50 ppm, scale 0 to 10) is listed as 1.6.

For `C=C1C[C@@]23CC[C@H]4[C@@](C)(CCC[C@@]4(C)C(=O)O[C@@H]4O[C@H](CO)[C@@H](O)[C@H](O)[C@H]4O[C@@H]4O[C@H](CO)[C@@H](O)[C@H](O)[C@H]4O)[C@@H]2CC[C@]1(O[C@@H]1O[C@H](CO)[C@@H](O)[C@H](O)[C@H]1O[C@@H]1O[C@H](CO)[C@@H](O)[C@H](O)[C@H]1O)C3` [Reb E, Rebaudioside E], in assay [3] (setting [4]), the “Sweet intensity of the compound solution” value is listed as 0.06. In addition, in assay [3] (setting [5]), the “Sweet intensity of the compound and R1 blend solution” value is listed as 1.5.

For the compound `C=C1C[C@@]23CC[C@H]4[C@@](C)(CCC[C@@]4(C)C(=O)O[C@@H]4O[C@H](CO)[C@@H](O)[C@H](O)[C@H]4O)[C@@H]2CC[C@]1(O[C@@H]1O[C@H](CO)[C@@H](O)[C@H](O[C@@H]2O[C@H](CO)[C@@H](O)[C@H](O)[C@H]2O)[C@H]1O[C@@H]1O[C@H](CO)[C@@H](O)[C@H](O)[C@H]1O)C3` [RebA, Rebaudioside A], the “Sweet intensity of the compound solution” value in assay [3] (setting [4]) was determined as 0.19. Also, the “Sweet intensity of the compound and R1 blend solution” value in assay [3] (setting [5]) is 1.9.

With `C/C=C/C=C/C=C/CC/C=C/C(=O)NCC(C)(C)O` [Compound S3, Hydroxy-β-sanshool], in assay [1], the “ΔLicorice intensity” value came out at 0, the “ΔLingering intensity” value was −0.4 and the “ΔSweet intensity tostevia extract solution” value is reported as “+0.2”. Moreover, in assay [2], the “ΔSweet intensity to sucrose solution” value was “+0.5”.

In the case of malonyl rebaudioside E [Malonyl Reb E], in assay [3] (setting [4]), the “Sweet intensity of the compound solution” value was determined as 0.13. Besides, the “Sweet intensity of the compound and R1 blend solution” value in assay [3] (setting [5]) stood at 1.5.

On to `COc1ccc(CCC(=O)c2c(O)cc(O[C@@H]3O[C@H](CO)[C@@H](O)[C@H](O)[C@H]3O[C@@H]3O[C@@H](C)[C@H](O)[C@@H](O)[C@H]3O)cc2O)cc1O` [NHDC, neohesperidin dihydrochalcone], for which, in assay [3] (compound 0.5 ppm in water, scale 0 to 10), the “Sweet intensity of the compound solution” value worked out at 0.06. In addition, the “Sweet intensity of the compound and R1 blend solution” value in assay [3] (compound 0.5 ppm plus R1 (Sichuan pepper oil) 50 ppm, scale 0 to 10) is 1.1.

For the compound `O=C1C[C@@H](c2ccc(O)cc2)Oc2cc(O)cc(O)c21` [Naringenin, naringenin], in assay [3] (setting [6]), the “Sweet intensity of the compound solution” value was 0.13. Also, the “Sweet intensity of the compound and R1 blend solution” value in assay [3] (setting [7]) was 1.3.

For the compound `C[C@H](CC[C@@H](O[C@@H]1O[C@H](CO[C@@H]2O[C@H](CO)[C@@H](O)[C@H](O)[C@H]2O)[C@@H](O)[C@H](O)[C@H]1O[C@@H]1O[C@H](CO)[C@@H](O)[C@H](O)[C@H]1O)C(C)(C)O)[C@H]1CC[C@@]2(C)[C@@H]3CC=C4[C@@H](CC[C@H](O[C@@H]5O[C@H](CO[C@@H]6O[C@H](CO)[C@@H](O)[C@H](O)[C@H]6O)[C@@H](O)[C@H](O)[C@H]5O)C4(C)C)[C@]3(C)[C@H](O)C[C@]12C` [Mogroside V, mogroside V], the “Sweet intensity of the compound solution” value in assay [3] (setting [4]) came out at 0.08. Also, the “Sweet intensity of the compound and R1 blend solution” value in assay [3] (setting [5]) is given as 1.6.

Turning to `COc1ccc(CCC(=O)c2c(O)cc(O[C@@H]3O[C@H](CO)[C@@H](O)[C@H](O)[C@H]3O)cc2O)cc1O` [hesperetin dihydrochalcone 4′-O-glucoside], the “Sweet intensity of the compound solution” value in assay [3] (setting [4]) is 0.04. Besides, in assay [3] (setting [5]), the “Sweet intensity of the compound and R1 blend solution” value is recorded as 1.9.

Take `O=C1C[C@@H](c2ccc(O)c(O)c2)Oc2cc(O)cc(O)c21` [Eriodictyol, eriodictyol]: the “Sweet intensity of the compound solution” value in assay [3] (setting [6]) is 0.03. Moreover, the “Sweet intensity of the compound and R1 blend solution” value in assay [3] (setting [7]) is 1.7.

As for malonyl rebaudioside A [Malonyl Reb A], the “Sweet intensity of the compound solution” value in assay [3] (setting [4]) is given as 0. In addition, the “Sweet intensity of the compound and R1 blend solution” value in assay [3] (setting [5]) amounted to 1.3.
